Results as given in patent publication US20240142467A1, “Use of Biomarkers in the Treatment of Fibrotic Conditions with a PDE4B-inhibitor” (Boehringer Ingelheim International GmbH, priority 2022, published 2024).

Columns and labels:
[1] = test system: patients with idiopathic pulmonary fibrosis; test: Phase 2 trial NCT04419506: treatment-emergent adverse events; conditions: for mean observed weight loss: over 12 weeks; for Any adverse event: 18 mg twice daily, 12 weeks
From the text: The study was a double-blind, placebo-controlled, parallel-design, Phase 2 study performed at 90 sites in 22 countries. […] After completion of the 12-week treatment period, patients entered a 1-week follow-up period. Patients who prematurely discontinued study medication were asked to attend all visits as originally planned to minimize missing data. […] Patients, investigators, central reviewers, and those involved in the study conduct and analysis were unaware of the treatment assignments. An interactive voice-response system was used to perform randomization.
The secondary endpoint was the percentage of patients with treatment-emergent adverse events.
All treated patients were included in the safety analysis, stratified by use of background antifibrotics (no or yes), and the analysis was descriptive in nature. Safety was assessed by clinical and laboratory evaluation and the recording of treatment-emergent adverse events, as coded with the use of the Medical Dictionary for Regulatory Activities, version 22.0.

[2] = test system: patients with idiopathic pulmonary fibrosis; test: Phase 2 trial NCT04419506: change from baseline in FVC at 12 weeks; format: in vivo, human; conditions: for lung function (FVC) compared to placebo: non-AF-background and AF-background groups; for lung function (FVC) compared to placebo / mean change in FVC from baseline to Week 12 / median change in FVC: 18 mg twice daily; for probability that the compound is superior to placebo: Bayesian borrowing analysis; for median change in FVC / median difference in FVC change vs placebo: Bayesian borrowing
From the text: Patients with a usual interstitial pneumonia (UIP) or probable UIP pattern on high-resolution computed tomography consistent with idiopathic pulmonary fibrosis, confirmed by central review, were eligible (Raghu et al, AM j Respir Crit Care Med 2019; 200:1089-1092). Patients also had forced FVC ≥45% predicted, and diffusing capacity of the lungs for carbon monoxide (DLco) corrected for hemoglobin 25-<80% predicted. Patients were permitted to continue antifibrotic therapy (nintedanib or pirfenidone) if they had been receiving a stable dose for at least 8 weeks prior to screening. Patients with airways obstruction, recent respiratory tract infection, or a history of suicidal behavior in the past 2 years, were excluded.
The primary endpoint—change from baseline in FVC at Week 12—was evaluated separately in patients without and with background antifibrotics at baseline, and included all data collected while on treatment. The primary analysis was based on a Bayesian borrowing approach in order to incorporate historical data for the placebo arms within the groups treated without or with background antifibrotics via meta-analytic predictive priors that were made robust against prior-data conflicts (Schmidli et al, Biometrics 2014 70: 1023-1032). A vaguely informative prior was used for the arms using the PDE4 inhibitor of formula A′ (Compound of formula A′ in the following). The primary endpoint analysis was conducted in a two-step procedure. In the first step, the data from the current trial were analyzed with a restricted maximum likelihood-based approach using a mixed model with repeated measurements (MMRM). The analysis included the fixed, categorical effect of treatment at each visit, and the fixed, continuous effects of baseline FVC at each visit. Visit was treated as the repeated measure, with an unstructured covariance structure used to model the within-patient measurements. Based on this model, the adjusted mean changes from baseline in FVC at 12 weeks (and the related standard error) were calculated for the Compound of formula A′ and placebo arms within the patient groups without and with background antifibrotics. In the second step, the adjusted means in the placebo arms were combined with the meta-analytic predictive priors derived based on the clinical trials in the nintedanib clinical development program in idiopathic pulmonary fibrosis. In order to evaluate the treatment effects in each group, the posterior distribution for the treatment difference of the compound of formula A′ versus placebo with respect to the primary endpoint was used. The median of the posterior distribution for the treatment difference (and 95% credible intervals) was calculated as the primary analysis, and posterior probabilities that the treatment difference was higher than different boundaries were reported.
Missing data for the primary analysis (continuous endpoint) were not imputed. The MMRM analysis allows for missing data, assuming they are missing at random. Sensitivity analyses were conducted to investigate the potential effect of missing data as well as early discontinuation via a treatment policy strategy, and a pooled analysis combining all patients irrespective of background treatment with antifibrotics.
As this was an exploratory trial, no confirmatory testing and adjustment for multiplicity was planned. The sample size was chosen based on the evaluations of posterior probabilities for the change from baseline in FVC at Week 12, assuming a standard deviation of 200 mL and treatment differences of 70 mL and 20 mL in the patients treated without or with background antifibrotics, respectively.

[3] = with background antifibrotics (N = 49)
[4] = without background antifibrotics
[5] = without background antifibrotics (N = 48)
[6] = with background antifibrotics, Week 12
[7] = without background antifibrotics, Week 12

Structure (SMILES): [O-][S@+]1CCc2nc(N3CCC(c4ncc(Cl)cn4)CC3)nc(NC3(CO)CCC3)c21 [Compound of formula A′]
- mean observed weight loss ([1]; group with antifibrotics): -1.41 kg
- mean observed weight loss ([1]; group without antifibrotics): -0.76 kg
- patients with fatal adverse events ([1]; treatment arm, both background groups together): 2 patients
- discontinuation of the study because of adverse events ([1]; with background antifibrotics): 10 patients
- patients with gastrointestinal disorders ([1]; with background antifibrotics): 36.7%
- patients with serious adverse events ([1]; with background antifibrotics): 6.1%
- patients with severe adverse events ([1]; with background antifibrotics): 4.1%
- Adverse events leading to discontinuation of study drug [1, 3]: 10 (20.4) n (%)
- Asthenia [1, 3]: 1 (2.0) n (%)
- Cough [1, 3]: 4 (8.2) n (%)
- Decreased appetite [1, 3]: 2 (4.1) n (%)
- Diarrhea [1, 3]: 15 (30.6) n (%)
- Diarrhea leading to discontinuation [1, 3]: 3 (6.1) n (%)
- Dyspepsia [1, 3]: 2 (4.1) n (%)
- Dyspnea [1, 3]: 0 (0.0) n (%)
- Fatigue [1, 3]: 1 (2.0) n (%)
- Flatulence [1, 3]: 2 (4.1) n (%)
- Gastrointestinal disorders [1, 3]: 18 (36.7) n (%)
- General disorders and administration site conditions [1, 3]: 7 (14.3) n (%)
- Headache [1, 3]: 3 (6.1) n (%)
- Infections and infestations [1, 3]: 7 (14.3) n (%)
- Investigations [1, 3]: 10 (20.4) n (%)
- Investigator-defined drug-related adverse events [1, 3]: 18 (36.7) n (%)
- Metabolism and nutrition disorders [1, 3]: 3 (6.1) n (%)
- Nasopharyngitis [1, 3]: 4 (8.2) n (%)
- Nausea [1, 3]: 1 (2.0) n (%)
- Nervous system disorder [1, 3]: 9 (18.4) n (%)
- Patients with pre-specified adverse events of special interest (vasculitis and hepatic injury) [1, 3]: 1 (2.0) n (%)
- Respiratory thoracic and mediastinal disorders [1, 3]: 6 (12.2) n (%)
- Serious adverse events: All [1, 3]: 3 (6.1) n (%)
- Serious adverse events: Other comparable medical criteria [1, 3]: 0 (0.0) n (%)
- Serious adverse events: Required or prolonged hospitalization [1, 3]: 3 (6.1) n (%)
- Serious adverse events: Resulted in death [1, 3]: 1 (2.0) n (%)
- Severe adverse events [1, 3]: 2 (4.1) n (%)
- Vomiting [1, 3]: 2 (4.1) n (%)
- Weight decreased [1, 3]: 1 (2.0) n (%)
- Any adverse event [1, 3]: 36 (73.5) n (%)
- patients with serious adverse events ([1]; without antifibrotics): 6.3%
- discontinuation of the study because of adverse events [1, 4]: 3 patients
- patients with gastrointestinal disorders [1, 4]: 27.1%
- patients with severe adverse events [1, 4]: 4.2%
- Adverse events leading to discontinuation of study drug [1, 5]: 3 (6.3) n (%)
- Asthenia [1, 5]: 3 (6.3) n (%)
- Cough [1, 5]: 3 (6.3) n (%)
- Decreased appetite [1, 5]: 1 (2.1) n (%)
- Diarrhea [1, 5]: 8 (16.7) n (%)
- Diarrhea leading to discontinuation [1, 5]: 0 (0.0) n (%)
- Dyspepsia [1, 5]: 3 (6.3) n (%)
- Dyspnea [1, 5]: 3 (6.3) n (%)
- Fatigue [1, 5]: 2 (4.2) n (%)
- Flatulence [1, 5]: 3 (6.3) n (%)
- Gastrointestinal disorders [1, 5]: 13 (27.1) n (%)
- General disorders and administration site conditions [1, 5]: 9 (18.8) n (%)
- Headache [1, 5]: 3 (6.3) n (%)
- Infections and infestations [1, 5]: 6 (12.5) n (%)
- Investigations [1, 5]: 5 (10.4) n (%)
- Investigator-defined drug-related adverse events [1, 5]: 9 (18.8) n (%)
- Metabolism and nutrition disorders [1, 5]: 1 (2.1) n (%)
- Nasopharyngitis [1, 5]: 0 (0.0) n (%)
- Nausea [1, 5]: 2 (4.2) n (%)
- Nervous system disorder [1, 5]: 4 (8.3) n (%)
- Patients with pre-specified adverse events of special interest (vasculitis and hepatic injury) [1, 5]: 0 (0.0) n (%)
- Respiratory thoracic and mediastinal disorders [1, 5]: 8 (16.7) n (%)
- Serious adverse events: All [1, 5]: 3 (6.3) n (%)
- Serious adverse events: Other comparable medical criteria [1, 5]: 1 (2.1) n (%)
- Serious adverse events: Required or prolonged hospitalization [1, 5]: 2 (4.2) n (%)
- Serious adverse events: Resulted in death [1, 5]: 1 (2.1) n (%)
- Severe adverse events [1, 5]: 2 (4.2) n (%)
- Vomiting [1, 5]: 1 (2.1) n (%)
- Weight decreased [1, 5]: 2 (4.2) n (%)
- Any adverse event [1, 5]: 31 (64.6) n (%)
- lung function (FVC) compared to placebo [2]: stabilized lung function
- lung function (FVC) compared to placebo ([2]; listed as PDE4-inhibitor of formula A′): significantly slowed decrease in lung function
- adjusted mean change from baseline in FVC after 12 weeks ([2]; pooled group with and without background antifibrotics, MMRM): +4.6 ml
- overall treatment effect on FVC (difference vs placebo) ([2]; pooled group with and without background antifibrotics, MMRM, Week 12): 88.4 mL
- probability that the compound is superior to placebo ([2]; with background antifibrotics): 98.6%
- mean change in FVC from baseline to Week 12 ([2]; with background antifibrotics, MMRM): +2.7 mL
- difference in mean FVC change vs placebo ([2]; with background antifibrotics, MMRM, Week 12): 80.4 mL
- median change in FVC [2, 6]: +2.7 mL
- median difference in FVC change vs placebo [2, 6]: 62.4 mL
- probability that the compound is superior to placebo [2, 4]: 99.8%
- mean change in FVC from baseline to Week 12 ([2]; without background antifibrotics, MMRM): +6.1 mL
- difference in mean FVC change vs placebo ([2]; without background antifibrotics, MMRM, Week 12): 101.7 mL
- median change in FVC [2, 7]: +5.7 mL
- median difference in FVC change vs placebo [2, 7]: 88.4 mL
